Experimental data from patent US12252486B2, “Solid state forms” (Amgen Inc., priority 2019, dated 2025).

Experiments:
KRAS^G12C tumors [1] = settings: preclinical analyses, combination; cited from earlier work
[2] = clinical trials, first dosing cohorts; cited from earlier work
KRAS^G12C tumors [3] = settings: immune-competent mice; alone as well as in combination with immune-checkpoint inhibitors; cited from earlier work
[4] = solubility assessment during lead optimization; assay type: physicochemical
Source text: Within the pharmaceutical research and development field, the investigation of a suitable solid-state form represents a crucial step. Investigating a solid-state form comprises several decisions, mainly the investigation of an anhydrous, salt or co-crystal form and the investigation of a polymorph of the respective anhydrous, salt or co-crystal. During a lead optimization program, several properties of research compounds are optimized, typically leading to one or a few candidates that continue into exploratory development programs. Typically, in the assessment and optimization of physical chemical parameters during lead optimization, the main focus is on solubility. […] Beyond the optimization of solubility, further physical chemical parameters, such as (1) melting point, (2) thermal behavior, (3) hygroscopicity, (4) crystal habit, (5) polymorphic behavior or physical stability, (6) impurity profile, and (7) chemical stability of the anhydrous or salt form, must be borne in mind when investigating the salt. The melting point of a drug, either as a free base, acid or salt form, should be higher than a certain threshold to allow processing steps such as drying or tableting. The assessment of thermal behavior, which is typically done by thermogravimetry (TGA) and differential scanning calorimetry (DSC), also includes solid-solid phase transitions. […]

Compound | effect on anti-tumor efficacy of chemotherapy and targeted agents (KRAS^G12C tumors [1]) | anti-tumor activity [2] | cures (KRAS^G12C tumors [3]) | solubility [4]
C=CC(=O)N1CCN(c2nc(=O)n(-c3c(C)ccnc3C(C)C)c3nc(-c4c(O)cccc4F)c(F)cc23)[C@@H](C)C1 [AMG 510] | improved the anti-tumor efficacy of chemotherapy and targeted agents | demonstrated anti-tumor activity | durable cures | –
C=CC(=O)N1CCN(c2nc(=O)n(-c3c(C)ccnc3C(C)C)c3nc(-c4c(O)cccc4F)c(F)cc23)[C@@H](C)C1 [Compound 1, 6-fluoro-7-(2-fluoro-6-hydroxyphenyl)-1-(4-methyl-2-(2-propanyl)-3-pyridinyl)-4-((2S)-2-methyl-4-(2-propenoyl)-1-piperazinyl)pyrido[2,3-d]pyrimidin-2(1H)-one] | – | – | – | good solubility features
